Assay results reported in US20130210907A1, “METHOD FOR PREVENTING OR TREATING ENTEROCHROMAFFIN CELL HYPERPLASIA-RELATED DISEASES BY QUERCETIN ADMINISTRATION” (HONG KONG BAPTIST UNIVERSITY, priority 2012, published 2013).

What was measured:
PI-IBS rats [1] = test: Mechanical stimuli (CRD)-induced 5-HT release: colonic 5-HT content with or without CRD; type: in vivo, rat; settings: for 5-HT content of tissue, +CRD: after CRD; for 5-HT content of tissue, -CRD: without CRD; for Decrease of colon tissue 5-HT content after CRD application: not significant
Experimental: 5-HT content in the colon tissue is assayed based on our previously reported procedure in Qi S D, Tian S L, Xu H X, Sung J J, Bian Z X. Quantification of luminally released serotonin in rat proximal colon by capillary electrophoresis with laser-induced fluorescence detection. Anal Bioanal Chem. 2009 April; 393(8):2059-66. Briefly, the colon segment is homogenized in 15% iced trichloroacetic acid; for 2 min and stored at 4° C. for 2 h. After centrifuge at 10,000 G for 15 min, the supernatant of each sample is filtered using 0.22 μm filters and extracted with diethyl ether for five times to remove the trichloroacetic acid. The prepared samples are added to derivatization solution (150 mM sodium tetraborate, 25% acetonitrile, 2 mM CFSE) and incubated for […] in dark at room temperature. The 5-HT content is analyzed by capillary electrophoresis with laser-induced fluorescence detection and expressed as nanogram per milligram (wet weight of tissue).
To determine whether mechanical stimuli (CRD) can induce colonic 5-HT release in PI-IBS rats, and whether Quercetin has effect on it, 5-HT content in colonic tissue is evaluated in rats with or without AWR test. The colon tissues for 5-HT content determination are collected from the rats from Example 1 and Example 2, and the methods for 5-HT content determination are followed as described in Example 2.

cyclin B1 = test: Western blot of cyclin B1 in QGP-1 cells; type: cell-based, human; settings: QGP-1, 50-100 μM, 24 h
Experimental: After drug treatment, the cells are lysed and centrifuged to collect the protein extract After determination of protein content, the samples protein are denatured at 100° C. for 5 min Proteins are separated by 10-12% SDS-PAGE and transferred to PVDF membranes (Bio-Rad, CA). After blocking with 5% nonfat milk for 1 h at room temperature, the membranes are incubated overnight at 4° C. with primary antibodies (mouse anti-cyclin BE 1:500, Abcam; goat anti-p-Cdc2:1:500, Santa Cruz; mouse anti-p21: 1:500, BD Bioscience). After washing three times in TBST, the membranes where incubated with the appropriate secondary antibodies (1:2000, Invitrogen) for 1 h at room temperature. The immunoreaction is detected using ECL Western blotting kit (ECL, Amersham, UK). Bands are visualized on Biomax X-ray film, and optical density of each band is semi-quantified by software (Image J.NIH). In order to adjust for any variations in loading, all detected protein bands are normalized to β-actin levels.

PI-IBS rats [2] = test: EMG recording: visceral motor response to graded colorectal distension (CRD); type: in vivo, rat
Experimental: Sprague-Dawley male rats (Laboratory Animal Services Centre, The Chinese University of Hong Kong) aged 6 weeks with body weight around 220 g are used to develop PI-IBS model. Briefly, rats are fasted for 24 h, and deeply anesthetized with chloral hydrate (350 mg.kg^−1, i.p.). After induction of colitis by 2,4,6-trinitrobenzenesulfonic acid solution (TNBS, 5 mg/0.8 ml/rat, in 50% ethanol, 8 cm from anus) administration, the rats are allowed to recover for at least 4 weeks before use. The control rats are similarly administered with 0.8 ml saline instead of TNBS. Only the rats that have completely recovered from the initial inflammation and acquired visceral hypersensitivity are used as the PI-IBS rats.
6 groups of 12 rats are tested. Normal rats (Group 1) are treated with water. PI-IBS rats are randomly divided into 5 groups and orally treated with water (Group 2), Doxantrazole (mast cell stabilizer, 30 mg/kg/d, Group 3), and Quercetin (Group 4-6) at the dose of 5, 10, and 20 mg/kg/d, respectively. After 2 weeks daily drug administration, 5 rats in each group are used to measure pain threshold pressure by abdominal withdrawal reflex (AWR) test, and the remaining […] is used for electromyography (EMG) recording.
AWR test is performed as previously described in Al-Chaer E D, Kawasaki M, Pasricha P J. A new model of chronic visceral hypersensitivity in adult rats induced by colon irritation during postnatal development. Gastroenterology. 2000 November; 119(5):1276-85. Briefly, rats are lightly anesthetized with ether; a latex balloon is inserted into the descending colon. Rats are then allowed to recover for about 1 h. The tube of the balloon is connected via a Y-connector to a sphygmomanometer and colorectal distension is applied in increments of 5 mmHg until a visible contraction of the abdominal wall is observed by an investigator blinded to the treatment. The pain threshold pressure is defined as the intensity of colorectal distension (CRD) that elicited an observable AWR, i.e. a sudden and persistent abdominal muscle contraction with abdomen lift off the platform. The pain threshold pressure of all groups is recorded and repeated five times with intervals of at least 5 minutes for recovery. EMG recording are conducted as previously described in Tammpere A, Brusberg M, Axenborg J, Hirsch I, Larsson H, Lindstrom E. Evaluation of pseudo-affective responses to noxious colorectal distension in rats by manometric recordings. Pain. 2005 August; 116(3):220-6 and Li Z, Zhang X J, Xu H X, Sung J J, Bian Z X. Intracolonical administration of protease-activated receptor-2 agonists produced visceral hyperalgesia by up-regulating serotonin in the colon of rats. Eur J. Pharmacol. 2009 Mar. 15; 606(1-3):199-204. Firstly, a surgical operation is made to implant the electrodes into the left external abdominal oblique muscles 7 days before EMG recording. After the last drug administration, a flexible latex balloon is inserted into the rat descending colon, and the rats are allowed to accommodate for 1 h. CRD is initiated, and the EMG signal is amplified and filtered by Power Lab System. Graded colorectal distension (20, 40, 60, and 80 mmHg; 20 s duration; 2 min inter-stimulus interval) is carried out for total three cycles to each rat. The changes of area under the curve (AUC) are calculated using that during 20 s distension period over the 20 s baseline.

normal rats = test: Pain threshold pressure in normal rats; type: in vivo, rat; settings: 10 mg/kg i.g., 14 days
Experimental: AWR test is performed as previously described in Al-Chaer E D, Kawasaki M, Pasricha P J. A new model of chronic visceral hypersensitivity in adult rats induced by colon irritation during postnatal development. Gastroenterology. 2000 November; 119(5):1276-85. Briefly, rats are lightly anesthetized with ether; a latex balloon is inserted into the descending colon. Rats are then allowed to recover for about 1 h. The tube of the balloon is connected via a Y-connector to a sphygmomanometer and colorectal distension is applied in increments of 5 mmHg until a visible contraction of the abdominal wall is observed by an investigator blinded to the treatment. […] The pain threshold pressure of all groups is recorded and repeated five times with intervals of at least 5 minutes for recovery. […] The changes of area under the curve (AUC) are calculated using that during 20 s distension period over the 20 s baseline.
To identify whether the effects of Quercerin in PI-IBS rats are specific, pain threshold pressure, colonic EC cell number and 5-HT content are further evaluated in normal rats treated with Quercetin. […] After the final drug administration, pain threshold pressure, colonic EC cell density and 5-HT content are evaluated and the methods used here are as same as that shown in above experiments.

O=c1c(O)c(-c2ccc(O)c(O)c2)oc2cc(O)cc(O)c12 [Quercetin, 2-(3,4-dihydroxyphenyl)-3,5,7-trihydroxy-4H-chromen-4-one]
5-HT content of tissue, +CRD (PI-IBS rats [1]; 5 mg/kg i.g.): 4.96 ± 0.91^ ng/mg | 5-HT content of tissue, -CRD (PI-IBS rats [1]; 5 mg/kg i.g.): 5.15 ± 0.58 ng/mg | 5-HT content of tissue, +CRD (PI-IBS rats [1]; 10 mg/kg i.g.): 4.29 ± 0.58^ ng/mg | 5-HT content of tissue, -CRD (PI-IBS rats [1]; 10 mg/kg i.g.): 4.63 ± 0.92 ng/mg | 5-HT content of tissue, +CRD (PI-IBS rats [1]; 20 mg/kg i.g.): 4.01 ± 1.14 ng/mg | 5-HT content of tissue, -CRD (PI-IBS rats [1]; 20 mg/kg i.g.): 5.50 ± 0.65^ ng/mg | Decrease of colon tissue 5-HT content after CRD application (PI-IBS rats [1]; low dose): ~3.67% | Decrease of colon tissue 5-HT content after CRD application (PI-IBS rats [1]; median dose): ~7.34% | Protein level of cyclin B1 (cyclin B1): significantly decrease | AUC value under graded distension pressures (EMG) (PI-IBS rats [2]; 5 mg/kg i.g., 20 mmHg): 161.22 ± 41.53 | AUC value under graded distension pressures (EMG) (PI-IBS rats [2]; 5 mg/kg i.g., 40 mmHg): 463.55 ± 12.42 | AUC value under graded distension pressures (EMG) (PI-IBS rats [2]; 5 mg/kg i.g., 60 mmHg): 586.42 ± 56.68 | AUC value under graded distension pressures (EMG) (PI-IBS rats [2]; 5 mg/kg i.g., 80 mmHg): 906.84 ± 41.08 | AUC value under graded distension pressures (EMG) (PI-IBS rats [2]; 10 mg/kg i.g., 20 mmHg): 124.61 ± 67.68 | AUC value under graded distension pressures (EMG) (PI-IBS rats [2]; 10 mg/kg i.g., 40 mmHg): 386.85 ± 65.68 | AUC value under graded distension pressures (EMG) (PI-IBS rats [2]; 10 mg/kg i.g., 60 mmHg): 530.98 ± 21.08 | AUC value under graded distension pressures (EMG) (PI-IBS rats [2]; 10 mg/kg i.g., 80 mmHg): 842.34 ± 62.92 | AUC value under graded distension pressures (EMG) (PI-IBS rats [2]; 20 mg/kg i.g., 20 mmHg): 88.28 ± 43.43 | AUC value under graded distension pressures (EMG) (PI-IBS rats [2]; 20 mg/kg i.g., 40 mmHg): 319.78 ± 118.03 | AUC value under graded distension pressures (EMG) (PI-IBS rats [2]; 20 mg/kg i.g., 60 mmHg): 470.73 ± 173.52 | AUC value under graded distension pressures (EMG) (PI-IBS rats [2]; 20 mg/kg i.g., 80 mmHg): 725.28 ± 192.44 | Pain threshold pressure (normal rats): 37.9 ± 1.7 mmHg
